Numbers after ± are expanded uncertainties.
Assay: xn = mol fraction of the nth substance listed
Details: 101.3 kPa, Liquid; for viscosity: Falling or rolling sphere viscometry; for mass density: Vibrating tube method

CCCC[n+]1ccn(C)c1.O=S(=O)([N-]S(=O)(=O)C(F)(F)F)C(F)(F)F + COC(=O)OC
Details	mass density [kg/m3]	viscosity [mPa·s]
288.15 K, x1 = 0.0898	1178.03 ± 2.9	1.605 ± 0.036
288.15 K, x1 = 0.1882	1250.71 ± 3	3.207 ± 0.071
288.15 K, x1 = 0.2749	1295.36 ± 3.1	5.396 ± 0.12
288.15 K, x1 = 0.3754	1334.26 ± 3.2	9.186 ± 0.2
288.15 K, x1 = 0.472	1362.15 ± 3.3	14.3 ± 0.32
288.15 K, x1 = 0.5745	1385.8 ± 3.4	22.53 ± 0.5
288.15 K, x1 = 0.673	1404.16 ± 3.4	32.06 ± 0.71
288.15 K, x1 = 0.7799	1419.88 ± 3.5	44.52 ± 0.99
288.15 K, x1 = 0.8948	1434.65 ± 3.5	61.53 ± 1.4
288.15 K, x1 = 1	1445.66 ± 3.5	78.02 ± 2
293.15 K, x1 = 0.0898	1172.07 ± 2.9	1.473 ± 0.033
293.15 K, x1 = 0.1882	1245.1 ± 3	2.886 ± 0.064
293.15 K, x1 = 0.2749	1289.95 ± 3.1	4.762 ± 0.11
293.15 K, x1 = 0.3754	1329.02 ± 3.2	7.93 ± 0.17
293.15 K, x1 = 0.472	1357.02 ± 3.3	12.12 ± 0.27
293.15 K, x1 = 0.5745	1380.77 ± 3.4	18.87 ± 0.42
293.15 K, x1 = 0.673	1399.14 ± 3.4	26.3 ± 0.58
293.15 K, x1 = 0.7799	1414.97 ± 3.4	35.81 ± 0.8
293.15 K, x1 = 0.8948	1429.79 ± 3.5	48.74 ± 1.1
293.15 K, x1 = 1	1440.84 ± 3.5	61.32 ± 1.4
298.15 K, x1 = 0.0898	1166.07 ± 2.9	1.365 ± 0.03
298.15 K, x1 = 0.1882	1239.48 ± 3	2.611 ± 0.057
298.15 K, x1 = 0.2749	1284.55 ± 3.1	4.235 ± 0.093
298.15 K, x1 = 0.3754	1323.78 ± 3.2	6.922 ± 0.15
298.15 K, x1 = 0.472	1351.9 ± 3.3	10.39 ± 0.23
298.15 K, x1 = 0.5745	1375.74 ± 3.3	16.3 ± 0.36
298.15 K, x1 = 0.673	1394.18 ± 3.4	21.86 ± 0.48
298.15 K, x1 = 0.7799	1410.07 ± 3.4	29.38 ± 0.65
298.15 K, x1 = 0.8948	1424.93 ± 3.5	39.46 ± 0.88
298.15 K, x1 = 1	1436.01 ± 3.5	48.93 ± 1.1
303.15 K, x1 = 0.0898	1160.05 ± 2.8	1.263 ± 0.028
303.15 K, x1 = 0.1882	1233.85 ± 3	2.376 ± 0.052
303.15 K, x1 = 0.2749	1279.14 ± 3.1	3.797 ± 0.084
303.15 K, x1 = 0.3754	1318.55 ± 3.2	6.1 ± 0.13
303.15 K, x1 = 0.472	1346.78 ± 3.3	8.998 ± 0.2
303.15 K, x1 = 0.5745	1370.71 ± 3.3	14 ± 0.31
303.15 K, x1 = 0.673	1389.23 ± 3.4	18.59 ± 0.41
303.15 K, x1 = 0.7799	1405.18 ± 3.4	24.46 ± 0.54
303.15 K, x1 = 0.8948	1420.08 ± 3.5	32.86 ± 0.73
303.15 K, x1 = 1	1431.21 ± 3.5	39.84 ± 0.88
308.15 K, x1 = 0.0898	1154.02 ± 2.8	1.173 ± 0.026
308.15 K, x1 = 0.1882	1228.22 ± 3	2.176 ± 0.048
308.15 K, x1 = 0.2749	1273.73 ± 3.1	3.428 ± 0.075
308.15 K, x1 = 0.3754	1313.32 ± 3.2	5.404 ± 0.12
308.15 K, x1 = 0.472	1341.67 ± 3.3	7.885 ± 0.17
308.15 K, x1 = 0.5745	1365.7 ± 3.3	11.98 ± 0.26
308.15 K, x1 = 0.673	1384.29 ± 3.4	16.17 ± 0.36
308.15 K, x1 = 0.7799	1400.31 ± 3.4	20.58 ± 0.45
308.15 K, x1 = 0.8948	1415.26 ± 3.4	27.73 ± 0.61
308.15 K, x1 = 1	1426.43 ± 3.5	32.91 ± 0.73
313.15 K, x1 = 0.0898	1147.98 ± 2.8	1.095 ± 0.024
313.15 K, x1 = 0.1882	1222.58 ± 3	2.002 ± 0.044
313.15 K, x1 = 0.2749	1268.32 ± 3.1	3.113 ± 0.068
313.15 K, x1 = 0.3754	1308.09 ± 3.2	4.822 ± 0.11
313.15 K, x1 = 0.472	1336.58 ± 3.2	6.959 ± 0.15
313.15 K, x1 = 0.5745	1360.7 ± 3.3	10.3 ± 0.23
313.15 K, x1 = 0.673	1379.37 ± 3.4	14.01 ± 0.31
313.15 K, x1 = 0.7799	1395.44 ± 3.4	17.54 ± 0.39
313.15 K, x1 = 0.8948	1410.45 ± 3.4	23.58 ± 0.52
313.15 K, x1 = 1	1421.66 ± 3.5	27.56 ± 0.61
318.15 K, x1 = 0.0898	1141.93 ± 2.8	1.022 ± 0.023
318.15 K, x1 = 0.1882	1216.94 ± 3	1.849 ± 0.041
318.15 K, x1 = 0.2749	1262.92 ± 3.1	2.837 ± 0.062
318.15 K, x1 = 0.3754	1302.88 ± 3.2	4.332 ± 0.095
318.15 K, x1 = 0.472	1331.49 ± 3.2	6.189 ± 0.14
318.15 K, x1 = 0.5745	1355.71 ± 3.3	8.913 ± 0.2
318.15 K, x1 = 0.673	1374.45 ± 3.3	12.1 ± 0.27
318.15 K, x1 = 0.7799	1390.59 ± 3.4	15.2 ± 0.33
318.15 K, x1 = 0.8948	1405.67 ± 3.4	19.93 ± 0.44
318.15 K, x1 = 1	1416.91 ± 3.4	23.33 ± 0.51
323.15 K, x1 = 0.0898	1135.85 ± 2.8	0.958 ± 0.021
323.15 K, x1 = 0.1882	1211.3 ± 2.9	1.719 ± 0.038
323.15 K, x1 = 0.2749	1257.51 ± 3	2.6 ± 0.057
323.15 K, x1 = 0.3754	1297.67 ± 3.1	3.943 ± 0.086
323.15 K, x1 = 0.472	1326.4 ± 3.2	5.54 ± 0.12
323.15 K, x1 = 0.5745	1350.73 ± 3.3	7.757 ± 0.17
323.15 K, x1 = 0.673	1369.55 ± 3.3	10.53 ± 0.23
323.15 K, x1 = 0.7799	1385.74 ± 3.4	13.21 ± 0.29
323.15 K, x1 = 0.8948	1400.88 ± 3.4	17.01 ± 0.37
323.15 K, x1 = 1	1412.17 ± 3.4	19.97 ± 0.44
328.15 K, x1 = 0.0898	1129.76 ± 2.8	0.899 ± 0.02
328.15 K, x1 = 0.1882	1205.65 ± 2.9	1.588 ± 0.035
328.15 K, x1 = 0.2749	1252.1 ± 3	2.394 ± 0.052
328.15 K, x1 = 0.3754	1292.46 ± 3.1	3.59 ± 0.079
328.15 K, x1 = 0.472	1321.33 ± 3.2	4.994 ± 0.11
328.15 K, x1 = 0.5745	1345.75 ± 3.3	6.772 ± 0.15
328.15 K, x1 = 0.673	1364.66 ± 3.3	9.191 ± 0.2
328.15 K, x1 = 0.7799	1380.9 ± 3.4	11.54 ± 0.25
328.15 K, x1 = 0.8948	1396.12 ± 3.4	14.93 ± 0.33
328.15 K, x1 = 1	1407.45 ± 3.4	17.41 ± 0.38
